The record followed here is patent publication US11040976B2, “Substrate selective inhibitors of insulin-degrading enzyme (IDE) and uses thereof” (President and Fellows of Harvard College, priority 2015, dated 2021).

SMILES strings stand for the structures.

For the assay, the target named is T1, recombinant human IDE42-1019 (Homo sapiens, UniProt P14735).
T1 construct: recombinant human IDE42-1019 (R&D Systems); purchased R&D Systems
T1 sequence (P14735 42-1019): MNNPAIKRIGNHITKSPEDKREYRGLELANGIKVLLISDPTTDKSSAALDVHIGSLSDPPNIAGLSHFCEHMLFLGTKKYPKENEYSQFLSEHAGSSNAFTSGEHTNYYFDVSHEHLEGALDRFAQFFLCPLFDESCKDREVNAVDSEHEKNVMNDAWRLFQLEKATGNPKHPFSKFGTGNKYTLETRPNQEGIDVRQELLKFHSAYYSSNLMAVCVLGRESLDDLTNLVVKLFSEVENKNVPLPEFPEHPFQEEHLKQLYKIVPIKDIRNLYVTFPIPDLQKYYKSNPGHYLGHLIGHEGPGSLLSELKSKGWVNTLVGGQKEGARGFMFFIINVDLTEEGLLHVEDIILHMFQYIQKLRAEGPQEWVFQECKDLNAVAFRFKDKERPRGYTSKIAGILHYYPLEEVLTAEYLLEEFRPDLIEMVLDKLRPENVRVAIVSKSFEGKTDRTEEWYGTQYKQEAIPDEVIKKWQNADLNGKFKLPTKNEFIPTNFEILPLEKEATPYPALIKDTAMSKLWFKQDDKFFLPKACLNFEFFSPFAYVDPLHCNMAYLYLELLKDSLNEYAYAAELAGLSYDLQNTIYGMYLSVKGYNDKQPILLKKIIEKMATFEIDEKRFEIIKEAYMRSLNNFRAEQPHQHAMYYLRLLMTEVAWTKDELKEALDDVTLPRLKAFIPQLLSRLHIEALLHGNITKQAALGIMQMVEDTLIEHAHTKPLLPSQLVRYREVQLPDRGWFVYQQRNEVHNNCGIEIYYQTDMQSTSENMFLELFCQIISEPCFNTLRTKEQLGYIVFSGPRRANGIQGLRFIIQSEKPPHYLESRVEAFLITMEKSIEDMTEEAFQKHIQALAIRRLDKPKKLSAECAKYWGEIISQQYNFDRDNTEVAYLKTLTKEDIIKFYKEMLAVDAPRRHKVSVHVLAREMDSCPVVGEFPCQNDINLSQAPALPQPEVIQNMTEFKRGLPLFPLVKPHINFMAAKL
Briefly: Protease assay with fluorogenic peptide substrate Mca-[…](Dnp)-OH. The assay is classed as biochemical. The settings on record: fluorogenic peptide Mca-RPPGFSAFK(Dnp)-OH; for IC50: apparent IC50 for compounds with submaximal inhibition, read-out: IC50 (μM) Proteolysis; for Emax: plateau at high inhibitor concentration, read-out: Imax (%) Proteolysis (inhibition maximum). How it is done:
The proteases IDE42-1019, recombinant human IDE42-1019 (R&D Systems), neprilysin (R&D), and angiotensin-converting enzyme (R&D) were assayed using the fluorophore/quencher-tagged peptide substrate Mca-[…](Dnp)-OH (SEQ ID NO: 24) (R&D) according to the manufacturer's instructions and using the recommended buffers (fluorophore Mca=(7-methoxycourmarin-4-yl)acetyl and quencher Dnp=2,4-dinitrophenyl). For IDE the recommended buffer is 50 mM Tris pH 7.5, 1 M NaCl. The enzyme mixtures (48 μL) were transferred to a 96-well plate and combined with 2 μL of inhibitor in DMSO solutions, in 3-fold dilution series. The mixtures were allowed to equilibrate for 10 minutes and the enzymatic reaction was started by addition of substrate peptide in assay buffer (50 μL), mixed, and monitored on a fluorescence plate reader (excitation at 320 nm, emission at 405 nm). Similarly, thimet oligopeptidase (R&D) and neurolysin (R&D) were assayed using substrate Mca-PLGPK(Dnp)-OH (SEQ ID NO: 25) (R&D) according to the manufacturer's instructions and using the recommended buffers. Matrix metalloproteinase-1 (R&D) was activated and assayed according to the manufacturer's instructions with substrate Mca-KPLGL-Dpa-AR-NH2 (SEQ ID NO: 20) (R&D) (quencher DPA=N-3-(2,4,dinitrophenyl)-L-2,3-diaminopropionyl). All assay data points were obtained in duplicate.

By IC50 is commonly meant the concentration that inhibits the measured activity by half. Consider `Cc1ccccc1S(=O)(=O)N1CCCCN2[C@H](CO)[C@@H](c3ccc(-c4cccc(F)c4)cc3)[C@@H]2C1` [K11], for which the IC50 stood at 2.5 µM. Still for that read-out and setting: next, `Cc1cccc(-c2ccc(C3CCN(C(=O)c4ccc5nccnc5c4)CC3)cc2)c1C` [J17]: 0.2 µM; `Cc1cccc(-c2ccc(C3CCN(S(=O)(=O)c4ccc5c(ccn5C)c4)CC3)cc2)c1C` [A14]: 10 µM; `Cc1ccccc1S(=O)(=O)N1CCCCN2[C@H](CO)[C@@H](c3ccc(-c4cccc(C(F)(F)F)c4)cc3)[C@@H]2C1` [B5]: 7.5 µM. Regarding `Cc1c(F)ccc(-c2ccc([C@@H]3[C@@H](CO)N4CCCCN(S(=O)(=O)c5cnc(C)n5C)C[C@@H]34)cc2)c1C` [JP-42], the IC50 turned out to be 0.008 µM.

`COC[C@H]1[C@H](c2ccc(C#Cc3ccccc3F)cc2)[C@@H]2CN(C(=O)NC(C)C)CCCCN12` [compound 304]: the IC50 is 2 µM and the Emax amounted to 80%. Take `Cc1cc(C)cc(-c2ccc([C@H]3C4CN(S(=O)(=O)c5ccccc5C)CCCCN4[C@@H]3CO)cc2)c1` (some centres unmarked) [K10]: the Emax worked out at 72%.

Consider `Cc1ccccc1S(=O)(=O)N1CCCCN2C(C1)[C@H](c1ccc(-c3cccc(F)c3)cc1)[C@H]2CO` (some centres unmarked) [K11], for which the Emax was 65%. `Cc1ccc(C)c(-c2ccc([C@@H]3[C@@H](CO)N4CCCCN(S(=O)(=O)c5ccccc5C)C[C@@H]34)cc2)c1` [B12]: the Emax is 65%. As to `Cc1cccc(-c2ccc([C@H]3C4CNC/C=C\CN4[C@@H]3CO)cc2)c1C` (some centres unmarked) [Int211], the IC50 is > 10 µM.

`Cc1cc2c(cc1S(=O)(=O)N1CCCCN3[C@H](CO)[C@@H](c4ccc(-c5cccc(C)c5C)cc4)[C@@H]3C1)OCC(=O)N2` [JP-S13]: the IC50 came out at 0.1 µM.

Take `Cc1cccc(-c2ccc(C3CCN(C(=O)c4cccc(OCc5ccccc5)c4)CC3)cc2)c1C` [A22]: the IC50 stood at 1 µM. Same read-out and setting: next, `Cc1cccc(-c2ccc([C@@H]3[C@@H](CO)N4CCCCN(S(=O)(=O)c5ccnn5C(C)C)C[C@@H]34)cc2)c1C` [JP-S10]: 0.015 µM. Take `Cc1ccccc1-c1ccc([C@@H]2[C@H](CO)N3C(=O)CN(C(=O)NC4CCCC4)C[C@@H]23)cc1` [compound 1576]: the IC50 amounted to 2.5 µM and the Emax stood at 60%. `Cc1cccc(-c2ccc(C3CCN(S(=O)(=O)c4cc(C(F)(F)F)cc(C(F)(F)F)c4)CC3)cc2)c1C` [A18]: the IC50 was 12 µM. Consider `Cc1ccc(C)c(-c2ccc([C@@H]3[C@@H](CO)N4CCCCN(S(=O)(=O)c5ccccc5C)C[C@@H]34)cc2)c1` [K13], for which the IC50 was determined as 0.09 µM.

For `Cc1ccc(-c2ccc([C@H]3C4CN(S(=O)(=O)c5ccccc5C)CCCCN4[C@@H]3CO)cc2)cc1C` (some centres unmarked) [K4], the Emax came to 72%. Consider `Cc1cccc(-c2ccc(C3CCN(C(=O)c4ccc5c(c4)C4(OC5=O)c5ccc(O)cc5Oc5cc(O)ccc54)CC3)cc2)c1C` [A40], for which the IC50 was 12 µM. The same measure, in the same setting: next, `Cc1cccc(-c2ccc(C3CCN(S(=O)(=O)c4ccc(F)c5ncccc45)CC3)cc2)c1C` [A07]: 3 µM. On to `Cc1ccccc1S(=O)(=O)N1CCCCN2C(C1)[C@H](c1ccc(-c3cccc(O)c3)cc1)[C@H]2CO` (some centres unmarked) [K8], for which the Emax came out at 100%. `Cc1ccccc1S(=O)(=O)N1CCCCN2[C@H](CO)[C@@H](c3ccc(-c4ccc5c(c4)OCO5)cc3)[C@@H]2C1` [K5]: the IC50 came out at 2.5 µM. Turning to `Cc1cccc(-c2ccc([C@@H]3[C@@H](CO)N4CCCCN(S(=O)(=O)c5ccc(F)cc5C(F)(F)F)C[C@@H]34)cc2)c1C` [JP-S15], the IC50 is 0.05 µM. In the case of `Cc1cccc(-c2ccc(C3CCN(S(=O)(=O)c4ccc5c(c4)OCO5)CC3)cc2)c1C` [A02], the IC50 was found to be 12 µM. For the compound `Cc1cc(F)ccc1-c1ccc([C@@H]2[C@@H](CO)N3CCCCN(S(=O)(=O)c4ccccc4C)C[C@@H]23)cc1` [JP-39], the IC50 came to 0.8 µM. For `Cc1ccccc1S(=O)(=O)N1CCCCN2[C@H](CO)[C@@H](c3ccc(-c4cccc(F)c4C(F)(F)F)cc3)[C@@H]2C1` [K23], the IC50 was 0.3 µM.

For the compound `Cc1cccc(-c2ccc(C3CCN(S(=O)(=O)c4cccc(Oc5ccc(F)cc5)c4)CC3)cc2)c1C` [A05], the IC50 stood at 9 µM. For the compound `COc1ccc(C)cc1-c1ccc([C@@H]2[C@@H](CO)N3CCCCN(S(=O)(=O)c4ccccc4C)C[C@@H]23)cc1` [K16], the IC50 turned out to be 0.8 µM. Consider `COC[C@@H]1[C@@H](c2ccc(-c3cccc(C)c3C)cc2)C2CN(S(=O)(=O)c3cnc(C)n3C)C/C=C\CN21` (some centres unmarked) [JP-S18-OMe], for which the IC50 turned out to be 0.02 µM. For `CCn1ncc(S(=O)(=O)N2C/C=C\CN3C(C2)[C@H](c2ccc(-c4cccc(C)c4C)cc2)[C@H]3CO)c1C` (some centres unmarked) [JP-S19], the half-maximal inhibitory concentration (IC50) came out at 0.09 µM.

`CCC(=O)N1[C@H](CO)[C@H](c2ccc(-c3ccccc3OC)cc2)[C@H]1CNC(C)=O` [D4]: the IC50 is > 20 µM. The same measure, in the same setting: next, `COC(=O)c1ccc(S(=O)(=O)N2CCCCN3C(C2)[C@H](c2ccc(-c4cccc(C)c4C)cc2)[C@H]3CO)n1C` (some centres unmarked) [JP-S27]: > 5 µM; `Cc1c(Cl)cccc1-c1ccc([C@H]2C3CN(S(=O)(=O)c4ccccc4C(F)(F)F)C/C=C\CN3[C@@H]2CO)cc1` (some centres unmarked) [K22]: 0.01 µM. Take `Cc1ccccc1-c1ccc([C@@H]2[C@@H](CO)N3CCCCN(S(=O)(=O)c4ccccc4C)C[C@@H]23)cc1` [B11]: the Emax was 65%. As for `Cc1cccc(-c2ccc(C3CCN(C(=O)c4ccc5c(c4)OCCN5C)CC3)cc2)c1C` [A25], the IC50 turned out to be 0.9 µM. In the case of `Cc1cccc(-c2ccc([C@H]3C4CN(S(=O)(=O)c5cccnc5C)C/C=C\CN4[C@@H]3CO)cc2)c1C` (some centres unmarked) [JP-S21], the IC50 is 0.02 µM.

In the case of `Cc1cc2c(cc1S(=O)(=O)N1CCC(c3ccc(-c4cccc(C)c4C)cc3)CC1)OCC(=O)N2` [A13], the IC50 came to 10 µM. In the case of `Cc1ccccc1S(=O)(=O)N1CCCCN2C(C1)[C@H](c1ccc(-c3cccc(C)c3C)cc1)[C@H]2CN` (some centres unmarked) [JP-8N], the IC50 is 0.002 µM.

With `COc1ccc(C(=O)N2CCC(c3ccc(-c4cccc(C)c4C)cc3)CC2)c(OC)c1` [A21], the IC50 stood at 1 µM. `Cc1cccc(-c2ccc(C3CCN(C(=O)C4c5ccccc5-c5ccccc54)CC3)cc2)c1C` [A27]: the IC50 was 12 µM. With `Cc1cccc(-c2ccc([C@H]3C4CN(S(=O)(=O)c5ccccc5C)CCCCN4[C@@H]3CN)cc2)c1` (some centres unmarked) [K29], the IC50 is 0.25 µM. For `CC(=O)Nc1ccc(S(=O)(=O)N2CCCCN3[C@H](CO)[C@@H](c4ccc(-c5cccc(C)c5C)cc4)[C@@H]3C2)c(C)c1` [JP-S12], the IC50 is 0.03 µM. For `Cc1cccc(-c2ccc([C@H]3C4CN(S(=O)(=O)c5cnc6n5CCCCC6)C/C=C\CN4[C@@H]3CO)cc2)c1C` (some centres unmarked) [JP-S17], the IC50 was 0.09 µM. Regarding `Cc1ccccc1S(=O)(=O)N1CCCCN2C(C1)[C@H](c1ccc(-c3ccc4c(c3)OCO4)cc1)[C@H]2CO` (some centres unmarked) [K5], the Emax worked out at 100%. For the compound `Cc1ccccc1-c1ccc([C@H]2C3CN(S(=O)(=O)c4ccccc4C)CCCCN3[C@@H]2CO)cc1` (some centres unmarked) [K12], the Emax came out at 65%. On to `Cc1cccc(-c2ccc(C3CCN(C(=O)Oc4ccc5ccccc5c4)CC3)cc2)c1C` [A30], for which the IC50 stood at 12 µM.
